The conditions of data set [1]: mouse, in vivo.
Description: (§1) The eight mice in each five groups were sensitized (may be simply called “sensitization”, hereinafter) with picryl chloride (Tokyo Chemical Industry Co., Ltd., Tokyo, Japan) in such a manner of dropping a solution, which had been dissolved in a mixture solution of ethanol and acetone in a volume ratio of 4:1 at a concentration of 5%, on the shaved abdominal skin of the mice and on four footpads in a total volume of 150 μL/mouse, and spreading the solution over the abdominal skin and the foot pads by using a micropipette similarly as above.
(§2) Throughout the test period, the mice were weighed once a week. The judgement of the conditions of skin inflammation was conducted twice a week every Tuesday and Friday from the 3rd induction for the degrees of four items of red flare/bleeding, edema (swelling of earflap), chafing/loss of tissue, and the formation of scar tissue/drying, and scored based on the criterion of four grades shown in Table 17; “0” (symptomless), “1” (mild), “2” (moderate), and “3” (severe). The total scores of each evaluation items for each group were averaged for use as a skin score.
In data set [2] the test system is TNF-α production from THP-1 cells; adenosine receptors A1R, A2AR, A2BR, A3R. The experiment in a line: TNF-α production from THP-1 cells, LPS + IFN-γ, ANO with adenosine receptor antagonists (Experiment 5). The conditions noted are these: LPS + human IFN-γ, ANO 5 μM. The data set is classed as cell-based. From the text:
USA; ZM241385, commercialized by Tocris Bioscience, MSY USA; MRS1754, commercialized by Sigma-Aldrich Corporation, St. Louis, Mo. […] The results are in Table 5 in parallel.

For data set [3], the system named is IL-6 in serum of mice administered with LPS. Put plainly: Serum IL-6 in LPS-administered mice, ANO i.v. (Experiment 7). The data set is classed as in vivo, BALB/c mice. The conditions noted are these: LPS 18 mg/kg i.p., serum two hours after LPS. Here is the method: More specifically, 18 BALB/c female mice, 9-week-old, commercialized by Japan Charles River, Tokyo, Japan, were randomly divided into three groups, six heads each. An LPS specimen derived from E. coli (055:B5), commercialized by Sigma-Aldrich Corporation, St. Louis, Mo. USA, was dissolved in physiological saline and intraperitoneally administered to all the 6 mice in respective three groups at a dose of 18 mg/kg body weight of LPS (Experiment groups 1 to 3). […] To the six mice of the remaining one group was intravenously administered PBS in a liquid volume of 0.2 mL/head simultaneously with the administration of LPS (Experiment group 1).
For the mice in each group, they were collected blood at two hours after the LPS administration, followed by assaying the level of TNF-α, IL-6, IL-10, and IL-12 in each serum and averaging the data for each group. For the assay of the level of TNF-α, the same ELISA as in Experiment 2 was used and for the assay of the level of IL-6, the same ELISA as in Experiment 3 was used. […]

The test system of data set [4] is IL-10 in serum of mice administered with LPS. The experiment in a line: Serum IL-10 in LPS-administered mice, oral administration (Experiment 11). The data set is classed as in vivo, BALB/c mice. The conditions noted are these: LPS 18 mg/kg i.p., serum 90 min after LPS. The method, then:
The seven mice in another one group were orally administered through a gastric tube with 3′-glucosyl-adenosine N1-oxide, which had been dissolved in PBS, at a dose of 200 mg/kg body weight in a liquid volume of 0.2 mL/head (Experiment group 4). The seven mice in the remaining one group were orally administered through a gastric tube with PBS in a liquid volume of 0.2 mL/head (Experiment group 1). All the mice were intraperitoneally administered with an LPS specimen derived from E. coli (055:B5), commercialized by Sigma-Aldrich Corporation, St. Louis, Mo. USA, which had been dissolved in PBS, at a dose of 18 mg/kg body weight (Experiment groups 1 to 4). For each group, the mice were collected blood from their tail veins at 90 min after administering LPS, followed by assaying the concentrations of TNF-α, IL-6, and IL-10 contained in serum by the same method as in […].

The subject of data set [5] is BALB/c mice. The experiment in a line: Safeness of injection preparations, i.v. once a day for seven days (Example 2). The data set is classed as in vivo. The conditions noted are these: mouse, in vivo, iv. Here is the method: The safeness of the preparations prepared in the above was evaluated.
For data set [6] the following is noted: D-MEM medium, absence of human serum, 100 μM, 37° C., 24 hours.
Data set [7] can be described thus: Body weight of picryl chloride-sensitized mice applied with gels (Experiment 16). The conditions noted are these: picryl chloride-sensitized NC/Nga mice, throughout the test period.
Description: as §1, §2

Like-named read-outs stand apart in the source and are kept apart here. Marks after values point to notes of the source that are not given here.

Turning to `Nc1ncnc2c1ncn2[C@@H]1O[C@H](CO)[C@@H](O)[C@H]1O` [AN, adenosine], the “body weight of mice applied with the gel” value in data set [1] is recorded as “reduction of increasing rate of their body weights”.

Consider `Nc1c2ncn([C@@H]3O[C@H](CO)[C@@H](O)[C@H]3O)c2nc[n+]1[O-]` [ANO, adenosine N1-oxide], for which the “TNF-α Concentration” value in data set [2] (no antagonist) was 97 pg/mL; in data set [2] (pretreated with DPCPX 0.5 μM), 132** pg/mL; in data set [2] (pretreated with DPCPX 1 μM), 130** pg/mL; in data set [2] (pretreated with DPCPX 5 μM) it was 129** pg/mL; in data set [2] (pretreated with DPCPX 10 μM), 133** pg/mL; in data set [2] (pretreated with MRS1220 0.5 μM), 105** pg/mL. Further, the “TNF-α Concentration” value in data set [2] (pretreated with MRS1220 1 μM) is reported as 105** pg/mL; in data set [2] (pretreated with MRS1220 5 μM) it was 105** pg/mL; in data set [2] (pretreated with MRS1220 10 μM) it was 102** pg/mL; in data set [2] (pretreated with MRS1754 0.5 μM), 118** pg/mL; in data set [2] (pretreated with MRS1754 1 μM), 121** pg/mL; in data set [2] (pretreated with MRS1754 5 μM), 121** pg/mL. Besides, the “TNF-α Concentration” value is 103* pg/mL in data set [2] (pretreated with MRS1754 10 μM); 135** pg/mL in data set [2] (pretreated with ZM241385 0.5 μM); 137** pg/mL in data set [2] (pretreated with ZM241385 1 μM); 135** pg/mL in data set [2] (pretreated with ZM241385 5 μM); 132** pg/mL in data set [2] (pretreated with ZM241385 10 μM). The results for the “IL-6 Concentration” value in data set [3] (ANO 68 mg/kg i.v.) and in data set [3] (ANO 135 mg/kg i.v.) were 59.1 ng/mL and 46.3* ng/mL, respectively. Moreover, the “Amount of IL-10” value was 5.6* ng/mL in data set [4] (oral 100 mg/kg) and 9.7** ng/mL in data set [4] (oral 200 mg/kg). Besides, the “change in body weight and other appearance versus PBS” value in data set [5] is listed as “no significant change”. In data set [5], the “clinical laboratory test results that provide indices of renal and liver functions versus PBS” value is “no difference”. In data set [6], this compound showed a residual percentage of 100%.

`OC[C@H]1O[C@@H](n2cnc3c(O)ncnc32)[C@H](O)[C@@H]1O` [IN, inosine]: in data set [7], the “body weight of mice applied with the gel” value was “reduction of increasing rate of their body weights”.
